Assay results: article PMC11044151, “Development of Half-Sandwich Ru, Os, Rh, and Ir Complexes Bearing the Pyridine-2-ylmethanimine Bidentate Ligand Derived from 7-Chloroquinazolin-4(3H)-one with Enhanced Antiproliferative Activity” (ACS Omega, 2024)

Experiments:
[1] = tested on: Colo205; assay: cells; details: for IC50: read-out: IC50 Colo205, exposure time 72 h, n = 3, 95% CI given; for activity factor IC50(1)/IC50(3a–4d), Colo205: vs corresponding amine (R)-1 or (S)-1, 72 h
Excerpt: (§1) To assess the impact of conjugating half-sandwich complexes with amines 1 via an imine-pyridine ligand on biological activity, we examined the antiproliferative potential of (R)- and (S)-1 and organometallic conjugates 3a–d and 4a–d in selected human cancer cell lines: alveolar basal epithelial cell adenocarcinoma (A549), colorectal adenocarcinomas (Colo205 and SW620), colorectal carcinoma (HCT116), hepatocellular carcinoma (HepG2), and breast adenocarcinoma (MCF7). The choice of cell lines was dictated by results of previously published clinical trials on ispinesib.[49],[50]
(§2) Cell lines used in this study were purchased from the American Type Culture Collection via LGC Standards. Human normal lung fibroblasts (MRC-5), alveolar basal epithelial cell adenocarcinoma (A549), colorectal adenocarcinoma (Colo205), hepatocellular carcinoma (HepG2), breast adenocarcinoma (MCF7), and colorectal adenocarcinoma (SW620) and its MDR variants[55] were cultured in standard conditions (37 °C, 5% CO2, 100% relative humidity) in high glucose DMEM medium supplemented with GlutaMax, HEPES (ThermoFisher Scientific) and 10% fetal bovine serum (EURx, Poland). All cell lines were tested for Mycoplasma contamination using a MycoProbe mycoplasma detection kit (R&D System).
(§3) For this purpose, neutral red uptake assay was performed. 10^4 of cells were seeded per well of a 96-well plate and left overnight to allow cells to attach to the surface. Then, the cells were exposed to a desired concentration of tested compounds. Stock solutions were prepared in DMSO and were used immediately after preparation. The final concentration of DMSO was constant and nontoxic (0.1% v/v). After 70 h of culture, neutral red was added to the final concentration of 1 mM. After 2 h of incubation with the dye, the medium was aspirated and cells were washed with ice-cold PBS. The dye was released using 100 μL of the solubilizer (1% acetic acid in 50% ethanol) on an orbital shaker (10 min). The absorbance at 540 nm was measured using an EnVision multilabel plate reader (PerkinElmer). […] The IC90 and IC50 parameters were calculated using GraphPad Prism v9 software using the five-parameter nonlinear logistic regression model.

[2] = tested on: HepG2; assay: cells; details: for IC50: read-out: IC50 HepG2, exposure time 72 h, n = 3, 95% CI given; for activity factor IC50(1)/IC50(3a–4d), HepG2: vs corresponding amine (R)-1 or (S)-1, 72 h
Excerpt: as §1, §2, §3

[3] = tested on: MCF7; assay: cells; details: for IC50: read-out: IC50 MCF7, exposure time 72 h, n = 3, 95% CI given; for activity factor IC50(1)/IC50(3a–4d), MCF7: vs corresponding amine (R)-1 or (S)-1, 72 h
Excerpt: as §1, §2, §3

[4] = tested on: SW620Mito; assay: Neutral red uptake antiproliferative assay, MDR line SW620Mito; assay type: cell-based, human; details: for IC50: exposure time 72 h, n = 3, ABCG2-overexpressing MDR line; for activity factor IC50(1)/IC50(3a–4d), SW620Mito: vs corresponding amine (R)-1 or (S)-1, 72 h
Excerpt: (§4) Next, we evaluated the cytotoxicity of the synthesized complexes toward the panel of six multidrug-resistant (MDR) cell lines derived from SW620 and characterized by the overexpression of various ABC proteins, namely, ABCG2 (SW620C and SW620Mito), ABCC1 (SW620M and SW620E), and ABCB1 (SW620D, SW620E, and SW620V) (Table 3, Figures S29 and S32). […] The activity of the complexes derived from the ligand (S)-2 is also considerably higher than that of the compounds containing the ligand (R)-2. The cytotoxicity of both rhodium 4c and iridium 4d complexes is higher than that of amine (S)-1. In the case of 4c, the increase in cytotoxicity is low, with the highest value of 3.7-fold for the SW620Mito line. […] Compound 4d also exerts a 2.1- and 2.6-fold higher cytotoxicity than […] against the SW620C and SW620D lines.
(§5) For this purpose, neutral red uptake assay was performed. […] The results were presented as a percentage of control.

[5] = tested on: HCT116; assay: cells; details: for IC50: read-out: IC50 HCT116, exposure time 72 h, n = 3, 95% CI given; for activity factor IC50(1)/IC50(3a–4d), HCT116: vs corresponding amine (R)-1 or (S)-1, 72 h
Excerpt: as §1, §3

[6] = tested on: SW620D; assay: Neutral red uptake antiproliferative assay, MDR line SW620D; assay type: cell-based, human; details: for IC50: exposure time 72 h, n = 3, ABCB1-overexpressing MDR line; for activity factor IC50(1)/IC50(3a–4d), SW620D: vs corresponding amine (R)-1 or (S)-1, 72 h
Excerpt: as §4, §5

[7] = tested on: A549; assay: Neutral red uptake antiproliferative assay, A549; details: for IC50: read-out: IC50 A549, exposure time 72 h, n = 3, 95% CI given; for activity factor IC50(1)/IC50(3a–4d), A549: vs corresponding amine (R)-1 or (S)-1, 72 h
Excerpt: as §1, §2, §3

[8] = tested on: SW620E; assay: Neutral red uptake antiproliferative assay, MDR line SW620E; assay type: cell-based, human; details: for IC50: exposure time 72 h, n = 3, ABCC1- and ABCB1-overexpressing MDR line; for activity factor IC50(1)/IC50(3a–4d), SW620E: vs corresponding amine (R)-1 or (S)-1, 72 h
Excerpt: as §4, §5

[9] = tested on: SW620; assay: Neutral red uptake antiproliferative assay, SW620; assay type: cell-based, human; details: for IC50: exposure time 72 h, n = 3, 95% CI given; for activity factor IC50(1)/IC50(3a–4d), SW620: vs corresponding amine (R)-1 or (S)-1, 72 h
Excerpt: as §1, §2, §3

[10] = tested on: SW620 cells; assay: Cell cycle distribution by flow cytometry, SW620; assay type: cell-based, human; details: concentration equal to IC75 of (S)-1 / (R)-1, mean ± SEM, n = 3; for Cell cycle fraction G1, 24 h / Cell cycle fraction G2/M, 24 h / Cell cycle fraction S, 24 h: SW620, 24 h; for Cell cycle fraction G1, 48 h / Cell cycle fraction G2/M, 48 h / Cell cycle fraction S, 48 h: SW620, 48 h
Method: Ispinesib leads to the formation of monopolar mitotic spindles and a blockade of chromosome segregation in cancer cells. Using flow cytometry, we assessed the cell cycle distribution in the SW620 and SW620E cells exposed to the studied compounds for 24 and 48 h. […] Both complexes, 3c and 3d, decrease the percentage of cells in the G1/G0 phase and increase the percentage in the S and G2/M phases. […] Furthermore, prolonged exposure to the compounds increases the percentage of cells in the G2/M phase, with the most intensive effect observed for 3c and 3d.
SW620 and SW620E cells lines (vulnerable and resistant variants, respectively) were seeded in 6-well plates at a density of 10^5 cells per well. […] After 24 h, the cells were trypsinized and fixed with ice-cold 70% v/v ethanol. The cells were stained with 75 μM propidium iodide with 50 Kunitz units of RNase A in PBS for 30 min at 37 °C. All samples were analyzed using a LSRII flow cytometer (Becton Dickinson) at a PE channel ([…]). Cell cycle phase distribution was determined using a built-in cell cycle module (Watson pragmatic algorithm) by FlowJo 7.6.1 software.

[11] = tested on: SW620V; assay: Neutral red uptake antiproliferative assay, MDR line SW620V; assay type: cell-based, human; details: for IC50: exposure time 72 h, n = 3, ABCB1-overexpressing MDR line; for activity factor IC50(1)/IC50(3a–4d), SW620V: vs corresponding amine (R)-1 or (S)-1, 72 h
Excerpt: as §4, §5

[12] = tested on: SW620M; assay: Neutral red uptake antiproliferative assay, MDR line SW620M; assay type: cell-based, human; details: for IC50: exposure time 72 h, n = 3, ABCC1-overexpressing MDR line; for activity factor IC50(1)/IC50(3a–4d), SW620M: vs corresponding amine (R)-1 or (S)-1, 72 h
Excerpt: as §4, §5

[13] = tested on: SW620C; assay: Neutral red uptake antiproliferative assay, MDR line SW620C; assay type: cell-based, human; details: for IC50: exposure time 72 h, n = 3, ABCG2-overexpressing MDR line; for activity factor IC50(1)/IC50(3a–4d), SW620C: vs corresponding amine (R)-1 or (S)-1, 72 h
Excerpt: as §4, §5

| Compound | IC50 [1] | activity factor IC50(1)/IC50(3a–4d), Colo205 [1] | IC50 [2] | activity factor IC50(1)/IC50(3a–4d), HepG2 [2] | IC50 [3] | activity factor IC50(1)/IC50(3a–4d), MCF7 [3] | IC50 [4] | activity factor IC50(1)/IC50(3a–4d), SW620Mito [4] | IC50 [5] | activity factor IC50(1)/IC50(3a–4d), HCT116 [5] | IC50 [6] | activity factor IC50(1)/IC50(3a–4d), SW620D [6] | IC50 [7] | activity factor IC50(1)/IC50(3a–4d), A549 [7] | IC50 [8] | activity factor IC50(1)/IC50(3a–4d), SW620E [8] | IC50 [9] | activity factor IC50(1)/IC50(3a–4d), SW620 [9] | Cell cycle fraction G1, 24 h [10] | Cell cycle fraction G2/M, 24 h [10] | also measured |
| --- | --- | --- | --- | --- | --- | --- | --- | --- | --- | --- | --- | --- | --- | --- | --- | --- | --- | --- | --- | --- | --- |
| CC(C)[C@H](N=Cc1ccccn1)c1nc2cc(Cl)ccc2c(=O)n1Cc1ccccc1.Cc1c(C)c(C)[c-](C)c1C.F[P-](F)(F)(F)(F)F.[Cl-].[Rh+3] [Compound 4c, [(Cp*)Rh((S)-2)Cl]PF6] | 2.89 µM | (2.10) | 1.15 µM | (2.09) | 1.5 µM | (2.61) | 1.05 µM | (3.72) | 2.94 µM | (2.74) | 6.07 µM | (0.684) | 3.79 µM | (1.86) | 6.2 µM | (0.653) | 2.24 µM | (1.28) | 52.6 ± 1.9% | 32.7 ± 2.0% | increase in cytotoxicity vs corresponding amine 1, SW620Mito ([4]; rounded value): 3.7 fold; Cell cycle fraction S, 24 h [10]: 13.6 ± 0.3%; Cell cycle fraction G1, 48 h [10]: 41.6 ± 1.0%; Cell cycle fraction G2/M, 48 h [10]: 43.8 ± 1.4%; Cell cycle fraction S, 48 h [10]: 13.7 ± 0.4%; IC50 [11]: 2.98 µM; activity factor IC50(1)/IC50(3a–4d), SW620V [11]: (1.15); IC50 [12]: 2.25 µM; activity factor IC50(1)/IC50(3a–4d), SW620M [12]: (1.54); IC50 [13]: 2.97 µM; activity factor IC50(1)/IC50(3a–4d), SW620C [13]: (1.12) |
| CC(C)[C@H](N=Cc1ccccn1)c1nc2cc(Cl)ccc2c(=O)n1Cc1ccccc1.Cc1ccc(C(C)C)cc1.F[P-](F)(F)(F)(F)F.[Cl-].[Os+2] [Compound 4b, [(cym)Os((S)-2)Cl]PF6] | 0.904 µM | (6.71) | 1.13 µM | (2.12) | 0.438 µM | (8.93) | 3.78 µM | (1.03) | 0.823 µM | (9.79) | 13.5 µM | (0.307) | 2.19 µM | (3.22) | 12.8 µM | (0.316) | 2.31 µM | (1.24) | 51.8 ± 0.2% | 32.6 ± 0.3% | increased cytotoxicity vs corresponding amine 1, Colo205 [1]: 7 fold; increased cytotoxicity vs corresponding amine 1, MCF7 [3]: 9 fold; increased cytotoxicity vs corresponding amine 1, HCT116 [5]: 10 fold; Cell cycle fraction S, 24 h [10]: 15.0 ± 0.5%; Cell cycle fraction G1, 48 h [10]: 41.8 ± 0.4%; Cell cycle fraction G2/M, 48 h [10]: 42.7 ± 0.6%; Cell cycle fraction S, 48 h [10]: 14.9 ± 0.4%; IC50 [11]: 9.3 µM; activity factor IC50(1)/IC50(3a–4d), SW620V [11]: (0.370); IC50 [12]: 2.45 µM; activity factor IC50(1)/IC50(3a–4d), SW620M [12]: (1.41); IC50 [13]: 4.54 µM; activity factor IC50(1)/IC50(3a–4d), SW620C [13]: (0.738) |
